Experiments:
[1] = Oxygen radical absorbance capacity (ORAC) assay; conditions: Table S6; per mM compound
Description: Trolox (positive control) was prepared at 2 mM in MeOH then serially diluted into ten concentrations 1000, 800, 700, 600, 500, 400, 300, 200, 100, and 50 μM for the concentration–response curve construction. The total extract and DCM fractions were made at 0.2 mg/mL in methanol, 100% and 50% were prepared at 0.05 mg/mL in methanol, while quercetin rhamnoside was prepared at a concentration of 0.225 mM in methanol. The assay was carried out using Liang et al.’s (2014) methodology, with minor modifications. In brief, 10 μL of the prepared samples were allowed to sit at 37 °C for 10 min with […] of fluoresceine (100 nM). For the background measurement, fluorescence measurements (485 EX, 520 EM, nm) were carried out three times for a total of 90 s each (range 1, Figure 1). Then, 70 μL of freshly made 2,2′-Azobis (2-amidinopropane) dihydrochloride (AAPH) (300 mM) was added to each well. For 60 min (40 cycles, each lasting 90 sec), the measurement of fluorescence (485 EX, 520 EM, nm) was maintained. The antioxidant impact of the samples was determined as the μM Trolox equivalent using the linear regression equation, and the data are shown as means (n = 3) SD.

[2] = target: T1, porcine pancreatic lipase (PPL) (Sus scrofa, UniProt P00591); assay: Pancreatic lipase enzyme inhibition (p-NPD); assay type: biochemical
T1 sequence (P00591 1-450): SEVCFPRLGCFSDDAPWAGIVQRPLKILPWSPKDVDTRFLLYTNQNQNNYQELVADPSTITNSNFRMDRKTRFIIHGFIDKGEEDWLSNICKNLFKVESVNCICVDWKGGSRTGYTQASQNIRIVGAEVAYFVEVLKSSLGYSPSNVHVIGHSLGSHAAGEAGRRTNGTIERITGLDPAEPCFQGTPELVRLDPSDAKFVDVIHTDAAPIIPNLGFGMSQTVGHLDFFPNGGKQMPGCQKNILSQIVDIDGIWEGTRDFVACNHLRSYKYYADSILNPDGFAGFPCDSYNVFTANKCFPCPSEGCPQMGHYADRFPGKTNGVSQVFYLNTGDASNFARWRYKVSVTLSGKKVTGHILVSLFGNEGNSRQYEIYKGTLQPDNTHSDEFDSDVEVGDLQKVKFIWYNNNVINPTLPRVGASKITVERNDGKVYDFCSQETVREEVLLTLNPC
Description: P-nitrophenyl dodecanoate (p-NPD from Sigma Aldrich, St. Louis, MO, USA) was used as the substrate, and porcine pancreatic lipase (PPL) was prepared as previously stated by with minor modification. In sum, 25 μL of prepared samples along with a blank were first incubated with 50 µL of PPL (1 mg/mL) in a Tris-HCl buffer (100 mM, pH 8) for 10 min prior to detecting the PPL activity. Following the addition of […] of p-NPD (10 mM in isopropanol), the reaction was then incubated again at 37 °C for 20 min. using […] of Tris-HCl buffer as a volume diluent.

[3] = Ferric reducing antioxidant power (FRAP) assay
Description: The samples were made in a mixture of methanol: DMSO (10:1) at a concentration of 2 mg/mL, while quercetin rhamnoside was made at a concentration of 0.9 mM. To produce the concentration–response curve, seven concentrations, including 7.812, 15.625, 31.25, 62.5, 125, 250, and 500 µM, were created from a stock solution of 1000 µM concentration of ascorbic acid, the positive control. According to the procedure of Benzie et al., this assay was conducted with minor modifications. It depends on Fe^3+ reduction into Fe^2+ which forms a colored complex with 2,4,6-tris (2-pyridyl)-s-[…] (TPTZ). In brief, in a 96-well plate (n = 3), […] of the sample was combined with […] of freshly made TPTZ reagent (300 mM acetate buffer (pH = 3.6), 10 mM TPTZ in 40 mM HCl, and 20 mM FeCl3, in that order; respectively). The reaction was then allowed to run at room temperature for 30 min while kept in a dark place, and the absorbance was measured at 593 nm. Data are shown as means ± SD [26]. […]

[4] = Metal chelation assay (Ferrozine)
Description: Except for quercetin rhamnoside, all the samples were prepared at a concentration of 0.2 mg/mL in methanol. A stock solution of EDTA (positive control) was made at a concentration of 0.1 mM in water and serially diluted into seven concentrations (80, 70, 60, 50, 40, 20, and 10 μM) for the purpose of creating a concentration–response curve. The method described in [28] was used for the Ferrozine iron metal chelation test, with a few minor adjustments made for microplates. In brief, 50 μL of the sample or substance on a 96-well plate and 50 μL of acetate buffer pH = 6 (n = 6) were combined with 20 μL of newly produced ferrous sulphate (0.3 mM in acetate buffer pH = 6). Then, each well received 30 μL of Ferrozine (0.8 mM in acetate buffer, pH = 6). For 10 min, the reaction mixture was incubated at room temperature. At the completion of the incubation period, the FluoStar Omega microplate reader was used to measure the reduction in the intensity of the produced color. The following equation describes how data are expressed as means ± SD:% Inhibition = [(Average Absorbance of blank − Average Absorbance of Test)/Average Absorbance of blank] × 100
The samples’ antioxidant potential was calculated as μM EDTA equivalents using the linear regression equation.

[5] = target: T2, Saccharomyces cerevisiae α-glucosidase (Saccharomyces cerevisiae, UniProt P53341); assay: α-glucosidase enzyme inhibition (pNPG, colorimetric); assay type: biochemical; conditions: pure compounds, read-out: IC50 (Mean ± SE)
T2 construct: purchased Sigma-Aldrich G5003-100UN
Description: Saccharomyces cerevisiae’s α-glucosidase was utilized (Sigma-Aldrich, St. Louis, MO, USA Cat#G5003-100UN). […] Seven concentrations, comprising 31.25, 62.5, 125, 250, 500, 750, and 1000 µM, were prepared from the buffer. […] Using p-nitrophenyl-D-glucopyranoside (pNPG) as a substrate, the inhibitory activity of α-Glucosidase was evaluated colorimetrically by applying the technique described by Gutiérrez-Grijalva et al. with minor modification. In 96-microwell plates, 25 μL of samples/blank were combined with 50 μL of S. cerevisiae α-glucosidase (0.6 U/mL) in phosphate buffer (0.1 M, pH 7) for 10 min at 37 °C. The mixture was then incubated once again for 5 min at 37 °C after the addition of 25 μL of 3 mM pNPG as a substrate in phosphate buffer (pH 7). Utilizing a microplate reader (Tecan, Männedorf, Switzerland) to measure the release of p-nitrophenol from the pNPG substrate at 405 nm, enzyme activity was ascertained [23]. After determining the absorbance (A), the inhibition % of -glucosidase was determined using the formula:% Inhibition = [(A blank − A sample)/A blank] × 100

[6] = ABTS assay; conditions: for % inhibition: standard curve (Figure S11)
Description: In brief, the production of the ABTS radical cation (ABTS•+) involved mixing 5 mL of ABTS aqueous solution (7 mM) with […] of potassium persulfate (140 mM) while the mixture was left at room temperature for 16 h in the dark. […] The absorbance was then measured at 690 nm using a microplate reader (Tecan, USA). According to the following equation, data are shown as means (n = 3) SD:% Inhibition = [(A blank - A sample)/A blank] × 100 Using the linear regression method, the antioxidant effect of the various samples was determined as μM ascorbic acid equivalent.

T2 sequence (P53341 whole entry): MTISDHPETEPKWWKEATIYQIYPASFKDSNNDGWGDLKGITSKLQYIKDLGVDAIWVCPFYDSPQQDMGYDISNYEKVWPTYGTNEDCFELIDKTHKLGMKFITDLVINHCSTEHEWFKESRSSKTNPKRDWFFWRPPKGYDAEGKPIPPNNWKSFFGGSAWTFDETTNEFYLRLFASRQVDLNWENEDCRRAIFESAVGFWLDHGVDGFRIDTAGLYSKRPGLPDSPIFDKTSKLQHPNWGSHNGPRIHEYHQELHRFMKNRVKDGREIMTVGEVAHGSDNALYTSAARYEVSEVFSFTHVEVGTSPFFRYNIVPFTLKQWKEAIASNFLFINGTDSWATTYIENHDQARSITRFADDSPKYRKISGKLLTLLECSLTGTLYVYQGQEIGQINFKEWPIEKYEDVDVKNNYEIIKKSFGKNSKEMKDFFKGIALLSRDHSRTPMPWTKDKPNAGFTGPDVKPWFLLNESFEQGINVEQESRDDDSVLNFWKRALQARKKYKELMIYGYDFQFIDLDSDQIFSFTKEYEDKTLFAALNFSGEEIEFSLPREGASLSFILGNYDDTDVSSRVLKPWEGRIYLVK

| SMILES | Antioxidant activity using ORAC assay [1] [µMT eq/mM] | inhibition at 500 µM ([2]; 500 µM, read-out: % Inhibition (Mean ± SD)) [%] | IC50 ([2]; pure compounds, read-out: IC50 (µM) (Mean ± SE)) | Trolox equivalent per mM sample ([3]; Table S5, FRAP) [µM TE/mM sample] | FRAP antioxidant activity, Trolox equivalent ([3]; per mM compound) [μmolar TE/mM] | EDTA equivalent per mM sample ([4]; Table S7) [µM eq/ mM sample] | Metal chelation activity, EDTA equivalent ([4]; per mM compound) [μmolar EDTAE/mM] | IC50 [5] [µM] | ABTS antioxidant activity, ascorbic acid equivalent ([6]; per mM compound) [μM AAE/mM] | % inhibition ([6]; 7.8125 µM) [%] | % inhibition ([6]; 15.625 µM) [%] | % inhibition ([6]; 31.25 µM) [%] | % inhibition ([6]; 62.5 µM) [%] | % inhibition ([6]; 125 µM) [%] | % inhibition ([6]; 250 µM) [%] | % inhibition ([6]; 500 µM) [%] |
| --- | --- | --- | --- | --- | --- | --- | --- | --- | --- | --- | --- | --- | --- | --- | --- | --- |
| CC1OC(Oc2c(-c3ccc(O)c(O)c3)oc3cc(O)cc(O)c3c2=O)C(O)C(O)C1O (stereo not drawn) [Quercetin-3-rhamnoside, quercetin-3-O-α-rhamnoside] | 25258.39 | 19.1 ± 0.34 | > 500 | 1681.23 | 1681.2 ± 49.9 | 377.98 | 377.98 ± 10.17 | 126.4 ± 1.04 | 1338.1 ± 81.38 |  |  |  |  |  |  |  |
| O=C1O[C@H]([C@@H](O)CO)C(O)=C1O [ascorbic acid] |  |  |  |  |  |  |  |  |  | 2.8930 | 3.7803 | 5.5156 | 9.7291 | 16.88 | 33.5451 | 62.86 |
